Experiments:
COPD patients = conditions: cilomilast: 15 mg orally twice daily; cited from earlier work
[1] = test system: Dinitrofluorobenzene (DNFB)-induced delayed type hypersensitivity (DTH) response in pigs; assay: Pig model of atopic dermatitis: DNFB-induced DTH response, skin topical administration; assay type: in vivo
Text: The pig DTH (delayed type hypersensitivity) model of contact hypersensitivity utilizes the Th2-mediated inflammatory response in pig skin to mimic the pathology of atopic dermatitis in humans. The model measures the potential anti-inflammatory effect of compounds, topically-applied to the skin, on the acute DTH (delayed type hypersensitivity) response in castrated male Yorkshire pigs.
In general in the assay, pigs (domestic Yorkshire pigs, 15-18 kg at time of sensitization, castrated males) are first sensitized by topical application of ca. 10% (w/v) dinitrofluorobenzene (DNFB) dissolved in DMSO:acetone:olive oil (ca. 1:5:3) (ca. 40 mg DNFB, 400 microlitre solution total) to the ears (outer) and groin (inner). The pigs are then challenged 12 days later with ca. 0.6% (w/v) DNFB applied to randomized sites on the shaved back of the pigs (ca. 90 micrograms/site; sites are identified and numbered by grid made with marking pen).
On the day of challenge, the treatments are performed at about 2 hours prior to and about 6 hours after challenge (for DMSO/acetone solutions/suspensions, to maximize exposure to drug), or at about 30 minutes after and about 6 hours after challenge (for topical ointments or creams, representing a more clinically relevant treatment protocol).
One day (about 24 hrs) after challenge, and optionally again at ca. 48 hrs post challenge, test sites are visually evaluated for intensity and extent of erythema by measuring the diameter of the reaction at its widest point and assigning scores of 0 to 4 for each of erythema intensity and erythema extent. Induration (a measure of swelling) is also scored 0 to 4. Scores for erythema intensity, erythema extent and induration are assigned according to the following criteria: Intensity of Erythema: 0=normal, 1=minimal, barely visible, 2=mild, 3=moderate, 4=severe. Extent of Erythema (not raised): 0=no edema, 1=macules of pin head size, 2=lentil sized macules, 3=confluent macules, 4=diffuse over entire site. Induration (palpable): 0=normal, 1=nodules of pin head size, 2=doughy lentil sized nodules, 3=confluent firm nodules, 4=diffuse hard lesion. The summed visual score at ca. 24 hours includes the individual scores for erythema intensity, erythema extent, and induration; so the maximal summed score for each site would be 12. High summed scores can generally indicate a high inflammatory response. Visual scores are subject to some inaccuracy/error.
Differences in the summed score between adjacent control (placebo) and treatment sites on the grids are calculated. This difference value is then used to determine the percent inhibition compared to the summed score for the control (placebo) sites. The more negative the difference value, the greater the calculated inhibition. Percent inhibition of (percent inhibition compared to) the mean summed score can be calculated.
About 24 hours after challenge, treatment sites can optionally also be visually evaluated for lesion area.
The anti-inflammatory effect of the compound of formula (I) (“free base” form), applied topically to the skin, on the acute DTH response in castrated male Yorkshire pigs is compared to that of another PDE4 inhibitor cipamfylline (BRL-61063) and the topical immunomodulator pimecrolimus.
In the above assay, the compound of formula (I) is topically administered: either (A) at ca. 2.5% (w/v) concentration in a solution of ca. 10% DMSO/90% acetone (ca. 50 microliters or ca. 1.5 mg/site) at about 2 hours prior to and about 6 hours after the DNFB challenge; or (B) at ca. 0.5% (w/w) concentration in an ointment containing propylene glycol (PG)*(ca. 25 mg of formulation/site) at about 30 minutes after and about 6 hours after the DNFB challenge. […]

[2] = test system: atopic dermatitis patients; conditions: 0.15% cream vs cream vehicle and hydrocortisone 17-butyrate (0.1%) cream; cited from earlier work

## COc1ccc([C@]2(C#N)CC[C@@H](C(=O)O)CC2)cc1OC1CCCC1 [cilomilast]
COPD patients
  forced expiratory volume in 1s (FEV1) in COPD patients: appears to improve forced expiratory volume in 1s (FEV1)

## Nc1nc2c([nH]1)c(=O)n(CC1CC1)c(=O)n2CC1CC1 [cipamfylline, reference compound]
[1]; ca. 0.25% (w/w) in ointment, not statistically significant
  reduction in summed scores: 6-7%
[1]; ca. 2.5% (w/v) in DMSO/acetone solution, vs vehicle alone, ca. 24 h after challenge
  reduction in mean summed score: about 8%
[2]
  efficacy in treatment of atopic dermatitis patients: significantly more effective than vehicle, but significantly less effective than hydrocortisone 17-butyrate (0.1%) cream

## CC[C@@H]1/C=C(\C)C[C@H](C)C[C@H](OC)[C@H]2O[C@@](O)(C(=O)C(=O)N3CCCC[C@H]3C(=O)O[C@H](/C(C)=C/[C@@H]3CC[C@H](Cl)[C@H](OC)C3)[C@H](C)[C@@H](O)CC1=O)[C@H](C)C[C@@H]2OC [pimecrolimus, reference compound]
[1]; 1% (w/w) cream formulation, p<0.05 by ANOVA
  inhibition of summed scores: about 29%
